Tests used:
Conditions in all cases: biotinylated peptide 0 to 200 µg.mL, streptavidin-HRP detection
[1] = test system: soy pulp
Protocol: (§1) The C-terminus was elongated with a GGGS-CONH2 tail to mimic the GGGS-peptide spacer between the random peptide sequence and the phage protein pIII and to block the negative charge of the carboxyl terminus. […] All synthetic peptides were reconstituted in sterile deionised H2O to a concentration of 2 mg/mL. The ability of biotinylated synthetic peptides (from 0 to 200 µg.mL) to bind to the immobilized purified Bowman-Birk inhibitor, soy pulp and soy whey extracts (and BSA as a negative control) was analyzed in solid phase assays. In this case, the biotinylated synthetic peptides were incubated on BBI coated wells (100 µg.mL) and detected using a streptavidin-HRP conjugate (1:500). Binding and absorbance readings are finally carried out using the TMB substrate as described before.

[2] = test system: BBI
Protocol: as §1

[3] = test system: soy whey
Protocol: as §1

GAMHLPWHMGTLGGGS-1,2-diaminoethane-biotin [peptide 1]
Dose-dependent binding: binding to soy pulp [1] | binding to BBI [2] | binding to soy whey [3]

Source: EP2604624A1, “Bowman-Birk protease Inhibitor (BBI) binding peptides, and uses thereof in the separation, detection or purification of BBI” (University College Dublin National University Of Ireland, …, priority 2011, dated 2013)
